“Also recorded” adds a separate entry of the source. Where two headings read alike, the source gives them in different places.
Legend:
[1] = system: experimental allergic encephalomyelitis in female Hartley guinea pigs; assay: Chronic EAE in guinea pigs: mean cell counts in spinal cord (H-E sections); type: in vivo, guinea pig; conditions: for cell number in spinal cord vs saline-treated animals: after 10, 20, 30 or 40 days of therapy, p<0.001 two-way ANOVA; for mean cell count in spinal cord 10 days after removal vs continuous treatment: p<0.05 ANOVA on ranks with SNK test
Experimental: To quantify the abnormalities observed in the spinal cord, sections stained with H-E were divided into 12 representative pie-shaped areas. In each area, the number of cells within a 0.12 mm^2 field of view was counted using Sigma Scan Pro image analysis software (SPSS Inc.), and the combined mean number of cells in all 12 areas was calculated for the whole spinal cord (36 fields of view per animal). Note that as all cell nuclei were counted, the number of cells may include neurons and glial cells in addition to infiltrates.
Statistical Analysis. Statistical analysis was performed using SigmaStat v2 software (SPSS Inc.). Clinical scores were assessed using the Mann Whitney rank sum test, while pathological scores were assessed with a two-Way ANOVA. Quantitative abnormalities were compared using Kruskal-Wallis ANOVA on ranks. In each case, p<0.05 was considered significant. A linear regression was performed on the mean cell counts in the spinal cord.

[2] = system: IL-2, IL-10, MCP-1; assay: Chronic EAE in guinea pigs: quantitative reverse transcription-PCR of spinal cord; type: in vivo, guinea pig; conditions: for cytokine RNA (IL-2, IL-10, MCP-1) in spinal cord after withdrawal: 10 days after removal
Experimental: Quantitative Reverse Transcription-PCR: IL-2, IL-10, MCP-1. RNA was isolated from 30 mg of frozen guinea pig spinal cord using the S.N.A.P.™ (simple nucleic acid preparation) total RNA Isolation Kit (Invitrogen) according to manufacturer's instructions, modified to include a second DNAse treatment step followed by an additional purification over the S.N.A.P. column.
Primer/probe sequences and concentrations for IL-2, IL-10, and MCP-1 are given in Table 7, as well as the standard RNA used for each gene. RT-PCR was carried out in triplicate using the ABI PRISM® 7700 Sequence Detection System. 50 μl reactions contained 10 to 800 ng of total RNA and primers and probes at the concentrations indicated above in reaction buffer consisting of 6.67% glycerol (Amresco); 5.5 mM MgCl; 300 μM dATP, dCTP, dGTP, and dUTP; 100 nM probe; 1.25 unit of AmpliTaq Gold® DNA Polymerase (Applied Biosystems); 1× TaqMan® Buffer A (TaqMan® PCR Core reagents kit, Applied Biosystems), 20 units of RNase Inhibitor (Roche); 1.25 unit of murine leukemia virus (MULV) Reverse Transcriptase (Applied Biosystems). Reverse-transcription of RNA was carried out at 48° C. for 30 min., followed by a 10 min. denaturing step at 95° C. PCR was carried out by 40 thermo-cycles consisting of 95° C. for 15 seconds followed by 60° C. for 1 minute. Each plate included a standard curve using the standard RNA listed in Table 7 and two additional control samples: 1) a positive control RNA sample used on all plates, 2) a non-template control (NTC).
The correlation coefficients of the standard curves were greater than 0.990 for all data shown. The coefficients of variation for sample triplicates were less than 0.2. Since the RNA used for the standard curve is a heterogeneous mix of RNA containing a constant but unknown amount of the target message, the numbers calculated are relative.

[3] = system: α4 integrin on lymphocytes and monocytes; assay: Chronic EAE in guinea pigs: FACS analysis of α4 integrin on circulating lymphocytes and monocytes; type: in vivo, guinea pig
Experimental: FACS Analysis. On day 80 post-immunization, heparinized blood samples were collected from non-EAE animals, saline-treated animals, N-[N-(3-pyridinesulfonyl)-L-3,3-dimethyl-4-thiaprolyl]-O-[1-methylpiperazin-4-ylcarbonyl]-L-tyrosine isopropyl ester-treated animals and animals 10 days following withdrawal of N-[N-(3-pyridinesulfonyl)-L-3,3-dimethyl-4-thiaprolyl]-O-[1-methylpiperazin-4-ylcarbonyl]-L-tyrosine isopropyl ester. All samples were maintained at 4° C. for all procedures. 150 μl samples were exposed to primary antibody for 30 minutes, washed twice, and then incubated with PE-conjugated goat anti-mouse IgG Fc in the presence of 5% guinea pig serum (Beckman Coulter #PN EM055 1). Red blood cells were lysed with Becton-Dickinson lysing solution and the samples were examined on a FACScan flow cytometer (Becton Dickinson, Mountain View, Calif.) gating on different cell populations by light scatter.

[4] = system: experimental allergic encephalomyelitis in female Hartley guinea pigs; conditions: for mean clinical score day 70-80 after withdrawal (30 days treatment, 10 days off) vs continued treatment: p<0.05 Mann Whitney rank sum test; for escape from treatment: up to 40 days of treatment, compared with antibodies to α4 integrin
[5] = listed as N-[N-(3-pyridinesulfonyl)-L-3,3-dimethyl-4-thiaprolyl]-O-[1-methylpiperzain-4-yl

SMILES: CC(C)OC(=O)[C@H](Cc1ccc(OC(=O)N2CCN(C)CC2)cc1)NC(=O)[C@H]1N(S(=O)(=O)c2cccnc2)CSC1(C)C [N-[N-(3-pyridinesulfonyl)-L-3,3-dimethyl-4-thiaprolyl]-O-[1-methylpiperazin-4-ylcarbonyl]-L-tyrosine isopropyl ester]
- cell number in spinal cord vs saline-treated animals [1]: significant reduction
- cell number in spinal cord vs saline-treated animals [1, 5]: fewer cells
- mean cell counts in spinal cord vs chronic control (d40) EAE animals ([1]; after 20, 30 or 40 days of treatment, p<0.05): significantly lower
- mean cell count in spinal cord vs non-EAE animals ([1]; after 40 days of treatment): not different
- mean cell count in spinal cord 10 days after removal vs continuous treatment [1]: significant increase
- mean cell count in spinal cord 10 days after removal vs continuous treatment [1, 5]: significantly increased
- rate of cell loss in spinal cord ([1]; slope of linear regression of mean cell counts (r^2=0.90)): 8 cells/mm^2/day
- cytokine RNA (IL-2, IL-10, MCP-1) in spinal cord after withdrawal [2]: returned to levels comparable to saline-treated animals
- cytokine RNA (IL-2, IL-10, MCP-1) in spinal cord after withdrawal [2, 5]: rose to levels comparable to those in saline-treated animals
- IL-2 RNA in lumbar spinal cord ([2]; during treatment, vs saline): almost no detectable
- expression of inflammatory cytokine RNA (IL-2, IL-10, MCP-1) in spinal cord ([2]; during treatment, vs saline): significant reduction; also recorded: marked decrease
- percentage of α4 integrin bright lymphocytes in the circulation after removal ([3]; day 80, 10 days after withdrawal): returned to saline-treated levels
- increase of α4 integrin expression on circulating monocytes in EAE ([3]; day 80 post immunization): not affected
- α4 integrin bright lymphocytes in the circulation vs saline-treated animals ([3]; day 80 post immunization): large increase
- mean clinical score vs saline-treated animals over the treatment period ([4]; 30 mg/kg 2×/day s.c. from day 40 post immunization for 10-40 days, p<0.001 Mann Whitney rank sum test): significantly lower
- start of clinical reversal following the initial treatment ([4]; 30 mg/kg twice a day s.c. from day 40 post immunization): 2 to 3 days
- adverse side effects during prolonged administration ([4]; guinea pig, 30 mg/kg 2×/day s.c. for up to 40 days, listed as N-[N-(3-pyridinesulfonyl)-L-3,3-dimethyl-4-thiaprolyl]-O-[1-methylpiperzain-4-yl, 30 mg/kg): no adverse side effects
- mean clinical score day 70-80 after withdrawal (30 days treatment, 10 days off) vs continued treatment [4]: significantly greater
- mean clinical score day 70-80 after withdrawal (30 days treatment, 10 days off) vs continued treatment [4, 5]: significantly higher
- hind limb paresis in animals with an established clinical score of 2 ([4]; reversion to a clinical score of 1 during treatment): reversed the paresis
- escape from treatment [4]: None of the animals, however, escaped from treatment
- escape from treatment [4, 5]: no escape from treatment

Reference: patent US7576101B2, “Composition for and treatment of demyelinating diseases and paralysis by administration of remyelinating agents” (Elan Pharmaceuticals, Inc., priority 2003, dated 2009)
